Drawing on patent US20140243286A1, “BROMODOMAIN LIGANDS CAPABLE OF DIMERIZING IN AN AQUEOUS SOLUTION, AND METHODS OF USING SAME” (Coferon, Inc., priority 2011, published 2014), this text covers IC50 for 16 molecules.

The target of one assay is BRD3 (Homo sapiens, UniProt Q15059). The experiment in a line: Fluorescence anisotropy (FA) binding assay, BRD3. How it is done: (§1) Fluorescence Anisotropy (FA) Binding Assays.
(§2) FA assays were performed as described in Chung et al., J. Med Chem., 2011 54(11): 3827-38 except that protein concentrations were 125 nM and plates were read on a Spectramax M5 plate reader.

In a further assay the target is BRD4 (Homo sapiens, UniProt O60885). In words: Fluorescence anisotropy (FA) binding assay, BRD4. As to the method:
as §1, §2

The target of the next assay is BRD2 (Homo sapiens, UniProt P25440). The experiment in a line: Fluorescence anisotropy (FA) binding assay, BRD2. As to the method: as §1, §2
Chain of BRD2 (P25440 whole entry): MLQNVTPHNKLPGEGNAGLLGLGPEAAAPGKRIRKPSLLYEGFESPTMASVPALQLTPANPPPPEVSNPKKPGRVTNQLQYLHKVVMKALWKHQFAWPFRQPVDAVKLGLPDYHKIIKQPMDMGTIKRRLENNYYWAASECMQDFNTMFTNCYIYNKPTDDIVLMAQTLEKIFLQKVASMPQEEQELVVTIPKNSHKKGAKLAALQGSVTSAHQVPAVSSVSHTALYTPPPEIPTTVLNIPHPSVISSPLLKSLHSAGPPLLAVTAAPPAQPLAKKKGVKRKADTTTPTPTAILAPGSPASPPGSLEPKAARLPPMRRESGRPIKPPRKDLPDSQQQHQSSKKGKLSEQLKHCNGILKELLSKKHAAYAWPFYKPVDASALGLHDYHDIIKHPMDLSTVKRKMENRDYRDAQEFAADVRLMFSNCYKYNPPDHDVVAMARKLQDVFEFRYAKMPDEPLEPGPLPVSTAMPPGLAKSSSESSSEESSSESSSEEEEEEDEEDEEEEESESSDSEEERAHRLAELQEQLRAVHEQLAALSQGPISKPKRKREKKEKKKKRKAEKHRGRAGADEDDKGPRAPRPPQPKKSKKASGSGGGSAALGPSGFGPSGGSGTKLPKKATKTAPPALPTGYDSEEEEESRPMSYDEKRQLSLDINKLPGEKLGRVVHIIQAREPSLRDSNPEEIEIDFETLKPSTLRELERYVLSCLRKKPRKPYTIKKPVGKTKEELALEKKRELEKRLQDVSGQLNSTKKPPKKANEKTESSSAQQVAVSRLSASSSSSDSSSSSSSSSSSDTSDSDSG
Background: In fluorescence polarisation assays a small probe gives low polarisation when free and higher when bound to something large.

Where [1] appears, read: BRD3, protein 125 nM, read-out: IC50 range (FA assay) BRD3, BRD-E monomers.
The mark [2] stands for this setting: BRD4, protein 125 nM, read-out: IC50 range (FA assay) BRD4, BRD-E monomers.
[3] abbreviates: BRD2, protein 125 nM, read-out: IC50 range (FA assay) BRD2, BRD-E monomers.

Read-outs that look alike come from different tables or passages of the source.

Chain of BRD3 (Q15059 whole entry): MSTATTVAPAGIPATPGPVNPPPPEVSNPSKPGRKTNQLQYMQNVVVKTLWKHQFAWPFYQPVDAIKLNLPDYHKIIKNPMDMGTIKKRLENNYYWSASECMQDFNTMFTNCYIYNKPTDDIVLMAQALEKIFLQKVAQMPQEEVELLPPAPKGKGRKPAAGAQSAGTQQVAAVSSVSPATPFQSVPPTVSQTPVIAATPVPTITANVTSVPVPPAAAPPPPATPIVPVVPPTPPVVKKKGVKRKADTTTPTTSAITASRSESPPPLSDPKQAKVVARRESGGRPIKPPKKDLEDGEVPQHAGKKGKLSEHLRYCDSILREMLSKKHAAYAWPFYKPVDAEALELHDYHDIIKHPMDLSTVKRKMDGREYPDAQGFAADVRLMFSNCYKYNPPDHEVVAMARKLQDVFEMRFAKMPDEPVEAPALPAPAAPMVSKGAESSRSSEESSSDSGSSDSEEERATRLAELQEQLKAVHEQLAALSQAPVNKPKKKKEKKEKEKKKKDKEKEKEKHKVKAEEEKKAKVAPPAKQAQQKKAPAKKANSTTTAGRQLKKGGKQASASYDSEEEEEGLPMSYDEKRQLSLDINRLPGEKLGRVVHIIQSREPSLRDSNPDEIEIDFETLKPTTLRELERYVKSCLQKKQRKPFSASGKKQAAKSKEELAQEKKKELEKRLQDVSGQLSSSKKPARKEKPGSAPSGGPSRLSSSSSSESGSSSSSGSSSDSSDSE

In general, IC50 refers to the concentration needed to halve the response being measured. Regarding `COc1ccc2c(c1)C(c1ccc(Cl)cc1)=N[C@@H](CC(=O)NCCNC(=O)c1ccc(B(O)O)cc1)c1nnc(C)n1-2` [BRD-E-01, (4-((2-(2-((4S)-6-(4-chlorophenyl)-8-methoxy-1-methyl-4H-benzo[f][1,2,4]triazolo[4,3-a][1,4]diazepin-4-yl)acetamido)ethyl)carbamoyl)phenyl)boronic acid], the IC50 at BRD3, on BRD4 and at BRD2 was 50 to 1000 nM each time.

On to `COc1ccc2c(c1)C(c1ccc(Cl)cc1)=N[C@@H](CC(=O)NCCNC(=O)c1cccc(B(O)O)c1)c1nnc(C)n1-2` [BRD-E-02, (3-((2-(2-((4S)-6-(4-chlorophenyl)-8-methoxy-1-methyl-4H-benzo[f][1,2,4]triazolo[4,3-a][1,4]diazepin-4-yl)acetamido)ethyl)carbamoyl)phenyl)boronic acid], for which the IC50 at BRD3, at BRD4 and at BRD2 was 50 to 1000 nM throughout.

Turning to `COc1ccc2c(c1)C(c1ccc(Cl)cc1)=N[C@@H](CC(=O)NCCCNC(=O)c1ccc(B(O)O)cc1)c1nnc(C)n1-2` [BRD-E-03, (4-((3-(2-((4S)-6-(4-chlorophenyl)-8-methoxy-1-methyl-4H-benzo[f][1,2,4]triazolo[4,3-a][1,4]diazepin-4-yl)acetamido)propyl)carbamoyl)phenyl)-boronic acid], the IC50 at BRD3 (setting [1]), on BRD4 (setting [2]) and on BRD2 (setting [3]) was 50 to 1000 nM in each case.

As for `COc1ccc2c(c1)C(c1ccc(Cl)cc1)=N[C@@H](CC(=O)NCCCNC(=O)c1cccc(B(O)O)c1)c1nnc(C)n1-2` [BRD-E-04, (3-((3-(2-((4S)-6-(4-chlorophenyl)-8-methoxy-1-methyl-4H-benzo[f][1,2,4]triazolo[4,3-a][1,4]diazepin-4-yl)acetamido)propyl)carbamoyl)phenyl)-boronic acid], the IC50 at BRD3 (setting [1]), at BRD4 (setting [2]) and at BRD2 (setting [3]) was 50 to 1000 nM throughout.

`COc1ccc2c(c1)C(c1ccc(Cl)cc1)=N[C@@H](CC(=O)NCCCCNC(=O)c1ccc(B(O)O)cc1)c1nnc(C)n1-2` [BRD-E-05, (4-((4-(2-((4S)-6-(4-chlorophenyl)-8-methoxy-1-methyl-4H-benzo[f][1,2,4]triazolo[4,3-a][1,4]diazepin-4-yl)acetamido)butyl)carbamoyl)phenyl)boronic acid]: the half-maximal inhibitory concentration (IC50) on BRD3 (setting [1]), at BRD4 (setting [2]) and on BRD2 (setting [3]) was 50 to 1000 nM in each case.

For `COc1ccc2c(c1)C(c1ccc(Cl)cc1)=N[C@@H](CC(=O)NCCCCNC(=O)c1cccc(B(O)O)c1)c1nnc(C)n1-2` [BRD-E-06, (3-((4-(2-((4S)-6-(4-chlorophenyl)-8-methoxy-1-methyl-4H-benzo[f][1,2,4]triazolo[4,3-a][1,4]diazepin-4-yl)acetamido)butyl)carbamoyl)phenyl)boronic acid], the IC50 on BRD3 (setting [1]), at BRD4 (setting [2]) and at BRD2 (setting [3]) was 50 to 1000 nM in each case.

As to `COc1ccc2c(c1)C(c1ccc(Cl)cc1)=N[C@@H](CC(=O)NCCCCCNC(=O)c1ccc(B(O)O)cc1)c1nnc(C)n1-2` [BRD-E-07, (4-((5-(2-((4S)-6-(4-chlorophenyl)-8-methoxy-1-methyl-4H-benzo[f][1,2,4]triazolo[4,3-a][1,4]diazepin-4-yl)acetamido)pentyl)carbamoyl)phenyl)-boronic acid], the IC50 on BRD3, on BRD4 and at BRD2 was 50 to 1000 nM in each case.

`COc1ccc2c(c1)C(c1ccc(Cl)cc1)=N[C@@H](CC(=O)NCCCCCNC(=O)c1cccc(B(O)O)c1)c1nnc(C)n1-2` [BRD-E-08, (3-((5-(2-((4S)-6-(4-chlorophenyl)-8-methoxy-1-methyl-4H-benzo[f][1,2,4]triazolo[4,3-a][1,4]diazepin-4-yl)acetamido)pentyl)carbamoyl)phenyl)-boronic acid]: the IC50 at BRD3 (setting [1]), at BRD4 (setting [2]) and at BRD2 (setting [3]) was 50 to 1000 nM throughout.

Consider `COc1ccc2c(c1)C(c1ccc(Cl)cc1)=N[C@@H](CC(=O)NCc1ccc(B(O)O)cc1)c1nnc(C)n1-2` [BRD-E-09, (S)-(4-((2-(6-(4-chlorophenyl)-8-methoxy-1-methyl-4H-benzo[f][1,2,4]triazolo[4,3-a][1,4]diazepin-4-yl)acetamido)methyl)phenyl)boronic acid], for which the 50% inhibitory concentration (IC50) on BRD3 (setting [1]), on BRD4 (setting [2]) and at BRD2 (setting [3]) was 50 to 1000 nM throughout.

Consider `COc1ccc2c(c1)C(c1ccc(Cl)cc1)=N[C@@H](CC(=O)NCc1cccc(B(O)O)c1)c1nnc(C)n1-2` [BRD-E-10, (S)-(3-((2-(6-(4-chlorophenyl)-8-methoxy-1-methyl-4H-benzo[f][1,2,4]triazolo[4,3-a][1,4]diazepin-4-yl)acetamido)methyl)phenyl)boronic acid], for which the IC50 on BRD3, on BRD4 and at BRD2 was 50 to 1000 nM throughout.

Regarding `COc1ccc2c(c1)C(c1ccc(Cl)cc1)=N[C@@H](CC(=O)NCCc1ccc(B(O)O)cc1)c1nnc(C)n1-2` [BRD-E-13, (S)-(4-(2-(2-(6-(4-chlorophenyl)-8-methoxy-1-methyl-4H-benzo[f][1,2,4]triazolo[4,3-a][1,4]diazepin-4-yl)acetamido)ethyl)phenyl)boronic acid], the results for the IC50 on BRD3 (setting [1]), at BRD4 (setting [2]) and on BRD2 (setting [3]) were 50 to 1000 nM, 50 to 1000 nM and 1000 to 30000 nM, respectively.

On to `COc1ccc2c(c1)C(c1ccc(Cl)cc1)=N[C@@H](CC(=O)NCCc1cccc(B(O)O)c1)c1nnc(C)n1-2` [BRD-E-14, (S)-(3-(2-(2-(6-(4-chlorophenyl)-8-methoxy-1-methyl-4H-benzo[f][1,2,4]triazolo[4,3-a][1,4]diazepin-4-yl)acetamido)ethyl)phenyl)boronic acid], for which the half-inhibitory concentration (IC50) at BRD3 (setting [1]), at BRD4 (setting [2]) and at BRD2 (setting [3]) was 50 to 1000 nM each time.

For `CCNC(=O)C[C@@H]1N=C(c2ccc(Cl)cc2)c2cc(OCC(=O)Nc3cccc(B(O)O)c3)ccc2-n2c(C)nnc21` [BRD-E-15, (S)-(3-(2-((6-(4-chlorophenyl)-4-(2-(ethylamino)-2-oxoethyl)-1-methyl-4H-benzo[f][1,2,4]triazolo[4,3-a][1,4]diazepin-8-yl)oxy)acetamido)phenyl)boronic acid], the results for the IC50 on BRD3 (setting [1]), at BRD4 (setting [2]) and on BRD2 (setting [3]) were 50 to 1000 nM, 50 to 1000 nM and 1000 to 30000 nM, respectively.

On to `CCNC(=O)C[C@@H]1N=C(c2ccc(Cl)cc2)c2cc(OCC(=O)Nc3ccc(B(O)O)cc3)ccc2-n2c(C)nnc21` [BRD-E-16, (S)-(4-(2-((6-(4-chlorophenyl)-4-(2-(ethylamino)-2-oxoethyl)-1-methyl-4H-benzo[f][1,2,4]triazolo[4,3-a][1,4]diazepin-8-yl)oxy)acetamido)phenyl)boronic acid], for which the values for the IC50 at BRD3 (setting [1]), at BRD4 (setting [2]) and on BRD2 (setting [3]) were 50 to 1000 nM, 50 to 1000 nM and 1000 to 30000 nM, respectively.

In the case of `CCNC(=O)C[C@@H]1N=C(c2ccc(Cl)cc2)c2cc(OCCCC(=O)Nc3cccc(B(O)O)c3)ccc2-n2c(C)nnc21` [BRD-E-19], the IC50 at BRD3 (setting [1]), at BRD4 (setting [2]) and at BRD2 (setting [3]) was 50 to 1000 nM each time.

In the case of `COc1ccc2c(c1)C(c1ccc(Cl)cc1)=N[C@@H](CC(=O)NCCNC(=O)Cc1ccc(B(O)O)cc1)c1nnc(C)n1-2` [BRD-E-27, (4-(2-((2-(2-((4S)-6-(4-chlorophenyl)-8-methoxy-1-methyl-4H-benzo[f][1,2,4]triazolo[4,3-a][1,4]diazepin-4-yl)acetamido)ethyl)amino)-2-oxoethyl)phenyl)boronic acid], the half-maximal inhibitory concentration (IC50) on BRD4 (setting [2]) and on BRD2 (setting [3]) was 1000 to 30000 nM each time.
